Test results reported in patent US20250312469A1 (CANGET BIOTEKPHARMA, priority 2024, published 2025).
Like-named read-outs stand apart in the source and are kept apart here. Marks after values point to notes of the source that are not given here.

[1] = female dogs, Group 4, 4/4 mg/kg/dose, Day −4
[2] = female dogs, Group 4, 4/4 mg/kg/dose, Day −4 (pre-dose)
[3] = male dogs, Group 4, 4/4 mg/kg/dose, Day 15
[4] = male dogs, Group 4, 4/4 mg/kg/dose, Day −4

CCC1(O)C(=O)OCc2c1cc1n(c2=O)Cc2cc3cc4c(cc3nc2-1)OCO4 (stereo not shown) [FL118]
MCH Mean [1]: 23.4 pg
MCHC % Diff [1]: 1.8%
MCHC Mean [1]: 35.7 g/dL
MCV % Diff [1]: −1.8%
MPV, mean platelet volume, Mean [1]: 11.1 fL
PLT (platelet count) % Diff vs Group 1 [1]: −10%
RDW Mean [1]: 13.1%
WBC % Diff [1]: 23.46%
ALB (albumin), % Diff versus vehicle Group 1 [2]: 1.8%
ALP (alkaline phosphatase), % Diff versus vehicle Group 1 [2]: −19%
ALP, alkaline phosphatase, Mean [2]: 129 U/L
ALT (alanine aminotransferase), % Diff versus vehicle Group 1 [2]: −8%
ALT, alanine aminotransferase, Mean [2]: 25 U/L
AST (aspartate aminotransferase), % Diff versus vehicle Group 1 [2]: −11%
AST, aspartate aminotransferase, Mean [2]: 31 U/L
BIL-T (total bilirubin), % Diff versus vehicle Group 1 [2]: 23.23%
CK (creatine kinase), % Diff versus vehicle Group 1 [2]: −39%
CK, creatine kinase, Mean [2]: 233 U/L
CRE (creatinine), % Diff versus vehicle Group 1 [2]: 11%
CRE, creatinine, Mean [2]: 52 µmol/L
Ca (calcium), % Diff versus vehicle Group 1 [2]: −2.36%
Cl (chloride), % Diff versus vehicle Group 1 [2]: 2%
GGT (gamma-glutamyltransferase), % Diff versus vehicle Group 1 [2]: 0%
GGT (gamma-glutamyltransferase), Mean [2]: 3 U/L
GLB, globulin, Mean [2]: 27.3 g/L
K, potassium, Mean [2]: 4.3 mmol/L
Na (sodium), % Diff versus vehicle Group 1 [2]: 1%
Na, sodium, Mean [2]: 147 mmol/L
P (inorganic phosphorus), % Diff versus vehicle Group 1 [2]: −6.41%
P, inorganic phosphorus, Mean [2]: 1.61 mmol/L
TCHO (total cholesterol), % Diff versus vehicle Group 1 [2]: −6.71%
TCHO, total cholesterol, Mean [2]: 3.66 mmol/L
TG (triglyceride), % Diff versus vehicle Group 1 [2]: −11.26%
TG, triglyceride, Mean [2]: 0.45 mmol/L
TP, total protein, Mean [2]: 57.4 g/L
UREA, urea, Mean [2]: 4.17 mmol/L
sGLU (glucose), % Diff versus vehicle Group 1 [2]: −0.07%
NOAEL (for males): 4.4 mg/kg/dose
Cl (chloride) % Diff vs Group 1 (male dogs, Group 2, 2.5/[…], Day 15): 3%
Cl (chloride) % Diff vs Group 1 (male dogs, Group 2, 2.5/[…], Day −4): 2%
Cl (chloride) % Diff vs Group 1 (male dogs, Group 3, 3.3/[…], Day 15): 2%
Cl (chloride) % Diff vs Group 1 (male dogs, Group 3, 3.3/[…], Day −4): −1%
ALP (alkaline phosphatase) % Diff vs Group 1 [3]: −31%
ALT (alanine aminotransferase) % Diff vs Group 1 [3]: 4%
ALT, alanine aminotransferase, Mean [3]: 29 L⁻¹
AST (aspartate aminotransferase) % Diff vs Group 1 [3]: −31%
BIL-T (total bilirubin (diasys)) % Diff vs Group 1 [3]: 31.07%
BIL-T (total bilirubin (diasys)) Mean [3]: 1.48 L⁻¹
CK (creatine kinase) % Diff vs Group 1 [3]: −10%
CK, creatine kinase, Mean [3]: 281 U/L
GGT (gamma-glutamyltransferase), Mean [3]: 3 U/L
GLB, globulin, Mean [3]: 28.3* g/L
K (potassium) % Diff vs Group 1 [3]: −10.3%
K, potassium, Mean [3]: 4.4 mmol/L
Na (sodium) % Diff vs Group 1 [3]: 2%
Na, sodium, Mean [3]: 148 mmol/L
P, inorganic phosphorus, Mean [3]: 1.63 L⁻¹
TCHO, total cholesterol, Mean [3]: 4.77 mmol/L
TG (triglyceride) % Diff vs Group 1 [3]: −15.79%
UREA (urea) % Diff vs Group 1 [3]: 2.96%
sGLU (glucose) % Diff vs Group 1 [3]: −6.55%
sGLU, glucose, Mean [3]: 4.47 L⁻¹
ALB, albumin, Mean [4]: 11.0 g/L
ALP (alkaline phosphatase) % Diff vs Group 1 [4]: −5%
ALP, alkaline phosphatase, Mean [4]: 141 L⁻¹
ALT (alanine aminotransferase) % Diff vs Group 1 [4]: 3%
ALT, alanine aminotransferase, Mean [4]: 25 L⁻¹
AST (aspartate aminotransferase) % Diff vs Group 1 [4]: −3%
AST, aspartate aminotransferase, Mean [4]: 32 L⁻¹
BIL-T (total bilirubin (diasys)) Mean [4]: 1.67 L⁻¹
CK (creatine kinase) % Diff vs Group 1 [4]: 15%
CRE (creatinine) % Diff vs Group 1 [4]: 8%
Cl (chloride) % Diff vs Group 1 [4]: 1%
K (potassium) % Diff vs Group 1 [4]: −2.8%
K, potassium, Mean [4]: 4.7 mmol/L
Na (sodium) % Diff vs Group 1 [4]: 0%
Na, sodium, Mean [4]: 146 mmol/L
P, inorganic phosphorus, Mean [4]: 1.52 L⁻¹
TCHO (total cholesterol) % Diff vs Group 1 [4]: −2.15%
TCHO, total cholesterol, Mean [4]: 4.85 mmol/L
TG (triglyceride) % Diff vs Group 1 [4]: −8.33%
TG, triglyceride, Mean [4]: 0.40 mmol/L
UREA, urea, Mean [4]: 4.25 L⁻¹
sGLU, glucose, Mean [4]: 4.11 L⁻¹
Total Bilirubin (BIL-T), max increase, females (vs control group): 16.14%
Total Bilirubin (BIL-T), max increase, males (vs control group): 47.34%
Triglyceride (TG), max decrease, females (vs control group): 37.84%
Triglyceride (TG), max decrease, males (vs control group): 22.56%
